# Source: ChEMBL document CHEMBL1649380, “Prediction of drug intestinal absorption by new linear and non-linear QSPR” (Eur J Med Chem, 2011)
# Test: Drug absorption in human assessed as human intestinal absorption rate
# Type: ADME, tissue-based, Intestine
row,Molecule,log10(%HIA +10)
1,C[C@](N)(Cc1ccc(O)c(O)c1)C(=O)O [METHYLDOPA],1.708
2,Nc1ccn([C@H]2CC[C@@H](CO)O2)c(=O)n1 [ZALCITABINE],1.978
3,CN(C)[C@@H]1C(O)=C(C(N)=O)C(=O)[C@@]2(O)C(O)=C3C(=O)c4c(O)cccc4[C@@](C)(O)[C@H]3[C@H](O)[C@@H]12 [OXYTETRACYCLINE],1.833
4,NS(=O)(=O)c1cc2c(cc1Cl)N=CNS2(=O)=O [CHLOROTHIAZIDE],1.528
5,O=C(O)CCC(=O)Nc1ccc(S(=O)(=O)Nc2nccs2)cc1 [SUCCINYLSULFATHIAZOLE],1.176
6,NCCCC[C@H](N[C@@H](CCc1ccccc1)C(=O)O)C(=O)N1CCC[C@H]1C(=O)O [LISINOPRIL ANHYDROUS],1.544
7,O=c1[nH]c(=O)n([C@H]2C[C@H](O)[C@@H](CO)O2)cc1/C=C/Br [BRIVUDINE],1.58
8,NCCC(O)(P(=O)(O)O)P(=O)(O)O [PAMIDRONIC ACID],1.176
9,CN(C)CCc1c[nH]c2ccc(CS(=O)(=O)N3CCCC3)cc12 [ALMOTRIPTAN],1.929
10,Cc1c(OCC(F)(F)F)ccnc1C[S+]([O-])c1nc2ccccc2[nH]1 (centres undefined) [LANSOPRAZOLE],1.978
11,CC(=O)N(CC(O)CO)c1c(I)c(C(=O)NCC(O)CO)c(I)c(C(=O)NCC(O)CO)c1I (centres undefined) [IOHEXOL],1.176
12,C[C@H]1O[C@H](O[C@H]2[C@H](O)[C@@H](O)[C@@H](O[C@H]3[C@H](O)[C@@H](O)C(O)O[C@@H]3CO)O[C@@H]2CO)[C@H](O)[C@@H](O)[C@@H]1N[C@H]1C=C(CO)[C@@H](O)[C@H](O)[C@H]1O (some centres undefined) [ACARBOSE],1.079
13,IVERMECTIN,1.845
14,Cc1onc(-c2c(F)cccc2Cl)c1C(=O)N[C@@H]1C(=O)N2[C@@H]1SC(C)(C)[C@@H]2C(=O)O [FLOXACILLIN],1.699
15,NC[C@H]1O[C@H](O[C@H]2[C@H](O)[C@@H](O[C@H]3O[C@H](CO)[C@@H](O)[C@H](N)[C@H]3O)[C@H](N)C[C@@H]2N)[C@H](N)C[C@@H]1O [TOBRAMYCIN],1
16,O=CN(O)CCCP(=O)(O)O [FOSMIDOMYCIN],1.602
17,NC(N)=Nc1nc(CSCCC(N)=NS(N)(=O)=O)cs1 [FAMOTIDINE],1.681
18,O=C(O)c1cc(=O)c2c(OCC(O)COc3cccc4oc(C(=O)O)cc(=O)c34)cccc2o1 [CROMOLYN],1.021
19,CCCc1c2oc(C(=O)O)cc(=O)c2cc2c(=O)cc(C(=O)O)n(CC)c12 [NEDOCROMIL],1.114
20,CCN1CCCC1CNC(=O)c1cc(S(=O)(=O)CC)ccc1OC (centres undefined) [SULTOPRIDE],1.996
21,NC(CO)C(=O)NNCc1ccc(O)c(O)c1O (centres undefined) [BENSERAZIDE],1.903
22,COc1nc(C)nc(Cl)c1N=C1NCCN1 [MOXONIDINE],1.991
23,CC(=O)CC(c1ccccc1)c1c(O)c2ccccc2oc1=O (centres undefined) [WARFARIN],2.033
24,COc1ccc2cc([C@H](C)C(=O)O)ccc2c1 [NAPROXEN],2.037
25,O=C(c1ccccc1)c1ccc2n1CCC2C(=O)O (centres undefined) [KETOROLAC],2
26,CO/N=C(\C(=O)N[C@@H]1C(=O)N2C(C(=O)O)=C(CSc3nc(C)c(CC(=O)O)s3)CS[C@H]12)c1csc(N)n1 [CEFODIZIME],1
27,O=C(O)CN(CCN(CC(=O)O)CC(=O)O)CC(=O)O [EDETIC ACID],1.176

row,Molecule,log10(%HIA +10)
1,CCOC(=O)[C@H](CCc1ccccc1)N[C@H]1CCc2ccccc2N(CC(=O)O)C1=O [BENAZEPRIL],1.672
2,O=C1c2c(O)ccc(O)c2C(=O)c2c(NCCNCCO)ccc(NCCNCCO)c21 [MITOXANTRONE],1.176
3,O=C(O)c1cc(/N=N/c2ccc(O)c(C(=O)O)c2)ccc1O [OLSALAZINE],1.09
4,Nc1ncnc2c1ncn2CCOCP(=O)(O)O [ADEFOVIR],1.342
5,CC[C@H](C)C(=O)O[C@H]1C[C@H](O)C=C2C=C[C@H](C)[C@H](CC[C@@H](O)C[C@@H](O)CC(=O)O)[C@H]21 [PRAVASTATIN],1.643
6,CN1CCN2c3ccccc3Cc3ccccc3C2C1 (centres undefined) [MIANSERIN],1.903
7,CCOC(=O)[C@H](CCc1ccccc1)N[C@@H](C)C(=O)N1[C@H](C(=O)O)C[C@@H]2CCC[C@@H]21,1.845
8,C[C@@H](O)[C@H]1C(=O)N2C(C(=O)O)=C(S[C@@H]3CN[C@H](C(=O)N(C)C)C3)[C@H](C)[C@H]12 [MEROPENEM],1
9,O=C1NS(=O)(=O)c2ccccc21 [SACCHARIN],1.991
10,CN(C)C(=N)N=C(N)N [METFORMIN],1.799
11,Oc1ccc(C(O)C2CCCCN2)cc1O (centres undefined) [RIMITEROL],1.763
12,CC[C@H](C)C(=O)O[C@H]1C[C@@H](C)C=C2C=C[C@H](C)[C@H](CC[C@@H]3C[C@@H](O)CC(=O)O3)[C@H]21 [LOVASTATIN],1.608
13,OC[C@@H](O)[C@@H](O)[C@H](O)[C@H](O)CO [MANNITOL],1.415
14,CCC[C@@H]1C[C@@H](C(=O)N[C@@H]([C@H]2O[C@H](SC)[C@H](O)[C@@H](O)[C@H]2O)[C@@H](C)O)N(C)C1 [LINCOMYCIN],1.574
15,CC1(C)S[C@@H]2[C@H](NC(=O)[C@H](NC(=O)N3CCNC3=O)c3ccccc3)C(=O)N2[C@H]1C(=O)O [AZLOCILLIN],1
16,CC[C@@H](CO)NCCN[C@@H](CC)CO [ETHAMBUTOL],1.954
17,CN1[C@@H]2CC[C@H]1C[C@@H](OC(=O)C(CO)c1ccccc1)C2 (some centres undefined) [ATROPINE],2.033
18,CC(C)(C)NCC(O)c1cc(O)cc(O)c1 (centres undefined) [TERBUTALINE],1.857
19,CC(C(=O)O)c1cccc(C(=O)c2ccccc2)c1 (centres undefined) [KETOPROFEN],2.009
20,N=C(N)c1ccc(OCCCCCOc2ccc(C(=N)N)cc2)cc1 [PENTAMIDINE],1
21,N=C(N)N/N=C/c1c(Cl)cccc1Cl [GUANABENZ],1.954
22,NC[C@@H]1O[C@H](O[C@H]2[C@@H](O)[C@H](O[C@@H]3[C@@H](O)[C@H](N)C[C@H](N)[C@H]3O[C@H]3O[C@H](CN)[C@@H](O)[C@H](O)[C@H]3N)O[C@@H]2CO)[C@H](N)[C@@H](O)[C@@H]1O [FRAMYCETIN],1.041
23,O=c1[nH]c2ccccc2n1C1CCN(CCCC(c2ccc(F)cc2)c2ccc(F)cc2)CC1 [PIMOZIDE],1.903
24,NCCCC(N)(C(=O)O)C(F)F (centres undefined) [EFLORNITHINE],1.813
25,OC[C@H]1O[C@@H](O[C@@H]2[C@@H](CO)O[C@](O)(CO)[C@H]2O)[C@H](O)[C@@H](O)[C@H]1O [LACTULOSE],1.025
26,NS(=O)(=O)c1cc2c(cc1Cl)NCNS2(=O)=O [HYDROCHLOROTHIAZIDE],1.875
27,CC(C)(C)NCC(O)c1ccc(O)c(CO)n1 (centres undefined) [PIRBUTEROL],1.845

row,Molecule,log10(%HIA +10)
1,CC(=O)NCCCS(=O)(=O)O [ACAMPROSATE],1.322
2,CC(C)NCC(O)c1ccc(NS(C)(=O)=O)cc1 (centres undefined) [SOTALOL],2.021
3,CCN1CCCC1CNC(=O)c1cc(S(N)(=O)=O)ccc1OC (centres undefined) [SULPIRIDE],1.732
4,CC(C)NCC(O)COc1cccc2ccccc12 (centres undefined) [PROPRANOLOL],2.037
5,N=C(N)NCC1COc2ccccc2O1 (centres undefined) [GUANOXAN],1.778
6,NCC[C@H](O)C(=O)N[C@@H]1C[C@H](N)[C@@H](O[C@H]2O[C@H](CN)CC[C@H]2N)[C@H](O)[C@H]1O[C@H]1O[C@H](CO)[C@@H](O)[C@H](N)[C@H]1O [ARBEKACIN],1
7,CCOC(=O)C(C)(C)Oc1ccc(Cl)cc1 [CLOFIBRATE],1.987
8,CN(N=O)C(=O)N[C@@H](C=O)[C@@H](O)[C@H](O)[C@H](O)CO [STREPTOZOCIN],1
9,COc1cccc(C(=O)CCN[C@@H](C)[C@H](O)c2ccccc2)c1 [OXYFEDRINE],1.978
10,O=P(O)(O)C(O)(Cc1cccnc1)P(=O)(O)O [RISEDRONIC ACID],1.041
11,CC(C)NCC(O)COc1ccc(CCNC(=O)NC(C)C)cc1 (centres undefined) [PAFENOLOL],1.591
12,COc1ccc2c3c1O[C@H]1[C@@H](O)C=C[C@H]4[C@@H](C2)N(C)CC[C@@]341 [CODEINE],2.021
13,N=c1nc2n(cc1F)[C@@H]1O[C@H](CO)[C@@H](O)[C@@H]1O2 [FLUROCITABINE],1.623
14,CC(C)NCC(O)COc1ccc(CCOCC2CC2)cc1 (centres undefined) [BETAXOLOL],2
15,CC(C)(C)NC[C@H](O)COc1nsnc1N1CCOCC1 [TIMOLOL],2.021
16,COc1ccc2c(c1)c(CC(=O)O)c(C)n2C(=O)c1ccc(Cl)cc1 [INDOMETHACIN],2.041
17,CCCCNC(=O)NS(=O)(=O)c1ccc(C)cc1 [TOLBUTAMIDE],1.978
18,CN(C)CCCOc1nn(Cc2ccccc2)c2ccccc12 [BENZYDAMINE],1.987
19,Nc1nc(O)c2ncn(COC(CO)CO)c2n1 [GANCICLOVIR],1.134
20,GENTAMICIN,1
21,CCOC(=O)C1=C(C)NC(C)=C(C(=O)OC)C1c1cccc([N+](=O)[O-])c1 (centres undefined) [NITRENDIPINE],1.991
22,CC(C)C[C@H]1C(=O)N2CCC[C@H]2[C@]2(O)O[C@](NC(=O)[C@@H]3C=C4c5cccc6[nH]c(Br)c(c56)C[C@H]4N(C)C3)(C(C)C)C(=O)N12 [BROMOCRIPTINE],1.58
23,CC(C)Cc1ccc(C(C)C(=O)O)cc1 (centres undefined) [IBUPROFEN],2.041
24,COCC1=C(C(=O)OC(C)OC(=O)OC(C)C)N2C(=O)[C@@H](NC(=O)/C(=N\OC)c3csc(N)n3)[C@H]2SC1 (some centres undefined) [CEFPODOXIME PROXETIL],1.778
25,Cc1cc(=O)n(-c2ccccc2)n1C [ANTIPYRINE],2.041
